# From patent EP4596537A1, “NOVEL FLUORENE DERIVATIVE COMPOUND AND USE THEREOF” (JD Bioscience Inc., priority 2022, dated 2024)
# Test system: PDHE1α S293
# Assay: In vitro PDH S293 phosphorylation inhibition (Western blot) in HEK293 cells
# Type: cell-based, human
# Conditions: Homo sapiens, 5 hours
# Experimental: HEK293 cells, which are human embryonic kidney cells, were seeded at a density of 2 × 10^6 in a 60 mm dish, and cultured for 24 hours. After replacing the medium with a medium comprising 0.5% FBS, the compounds prepared according to Examples 1 to 54 were treated at various concentrations. 5 hours later, the cells were scraped off and collected into a 15 mL conical tube and centrifuged at 1500 rpm for 10 minutes. The supernatant was discarded, the resultant was washed with 1× PBS, and transferred to a 1.5 mL e-tube, followed by centrifugation at 10,000 rpm for 5 minutes. The supernatant was discarded again, a lysis buffer was added, and the cells were lysed on ice for 30 minutes. The cells were vortexed every 10 minutes to completely lyse, and centrifuged again at 10,000 rpm for 15 minutes at 4°C, and the supernatant was collected. The protein in the supernatant was quantified using BCA technique, and the sample buffer was added to 20 µg of protein and allowed to react at 70°C for 5 minutes. The expression of PDHE1α S232, S293, S300, and total PDHE1α proteins was detected by Western blot, and the resulting PDH S293 phosphorylation inhibition is shown in Table 6. […]
row,Compound,inhibition at 1 µM
1,"COc1cc(-c2cnn(C(C)C(=O)NNc3ccc(F)cc3)c2)c2c(c1)C(O)(C(F)(F)F)c1ccccc1-2 (stereo not shown) [Example 2, N'-(4-fluorophenyl)-2-(4-(9-hydroxy-2-methoxy-9-(trifluoromethyl)-9H-fluoren-4-yl)-1H-pyrazol-1-yl)propanehydrazide]",≥ 50%
2,"CC(C(=O)NNc1ccc(S(C)(=O)=O)cc1F)n1cc(-c2cc(F)cc3c2-c2ccccc2C3(O)C(F)(F)F)cn1 (stereo not shown) [Example 3, N'-(2-fluoro-4-(methylsulfonyl)phenyl)-2-(4-(2-fluoro-9-hydroxy-9-(trifluoromethyl)-9H-fluoren-4-yl)-1H-pyrazol-1-yl)propanehydrazide]",≥ 50%
3,"CC(C(=O)NNc1ccccc1)n1cc(-c2cc(F)cc3c2-c2ccccc2C3(O)C(F)(F)F)cn1 (stereo not shown) [Example 4, 2-(4-(2-fluoro-9-hydroxy-9-(trifluoromethyl)-9H-fluoren-4-yl)-1H-pyrazol-1-yl)-N'-phenylpropanehydrazide]",≥ 80%
4,"CC(C(=O)NNc1cccc2ccccc12)n1cc(-c2cc(F)cc3c2-c2ccccc2C3(O)C(F)(F)F)cn1 (stereo not shown) [Example 5, 2-(4-(2-fluoro-9-hydroxy-9-(trifluoromethyl)-9H-fluoren-4-yl)-1H-pyrazol-1-yl)-N'-(naphthalen-1-yl)propanehydrazide]",≥ 50%
5,"CC(C(=O)NNc1ccccc1Cl)n1cc(-c2cc(F)cc3c2-c2ccccc2C3(O)C(F)(F)F)cn1 (stereo not shown) [Example 6, N'-(2-chlorophenyl)-2-(4-(2-fluoro-9-hydroxy-9-(trifluoromethyl)-9H-fluoren-4-yl)-1H-pyrazol-1-yl)propanehydrazide]",≥ 50%
6,"CC(C(=O)NNc1ccc(Cl)cc1)n1cc(-c2cc(F)cc3c2-c2ccccc2C3(O)C(F)(F)F)cn1 (stereo not shown) [Example 7, N'-(4-chlorophenyl)-2-(4-(2-fluoro-9-hydroxy-9-(trifluoromethyl)-9H-fluoren-4-yl)-1H-pyrazol-1-yl)propanehydrazide]",≥ 50%
7,"CC(C(=O)NNc1ccccn1)n1cc(-c2cc(F)cc3c2-c2ccccc2C3(O)C(F)(F)F)cn1 (stereo not shown) [Example 8, 2-(4-(2-fluoro-9-hydroxy-9-(trifluoromethyl)-9H-fluoren-4-yl)-1H-pyrazol-1-yl)-N'-(pyridin-2-yl)propanehydrazide]",≥ 80%
8,"COc1cc(-c2cnn(C(C)C(=O)NNc3ccc(S(C)(=O)=O)cc3F)c2)c2c(c1)C(O)(C(F)(F)F)c1ccccc1-2 (stereo not shown) [Example 9, N'-(2-fluoro-4-(methylsulfonyl)phenyl)-2-(4-(9-hydroxy-2-methoxy-9-(trifluoromethyl)-9H-fluoren-4-yl)-1H-pyrazol-1-yl)propanehydrazide]",≥ 80%
9,"COc1cc(-c2cnn(C(C)C(=O)NNc3ccc(Cl)cc3)c2)c2c(c1)C(O)(C(F)(F)F)c1ccccc1-2 (stereo not shown) [Example 10, N'-(4-chlorophenyl)-2-(4-(9-hydroxy-2-methoxy-9-(trifluoromethyl)-9H-fluoren-4-yl)-1H-pyrazol-1-yl)propanehydrazide]",≥ 50%
10,"COc1cc(-c2cnn(C(C)C(=O)NNc3cccc4ccccc34)c2)c2c(c1)C(O)(C(F)(F)F)c1ccccc1-2 (stereo not shown) [Example 11, 2-(4-(9-hydroxy-2-methoxy-9-(trifluoromethyl)-9H-fluoren-4-yl)-1H-pyrazol-1-yl)-N'-(naphthalen-1-yl)propanehydrazide]",≥ 50%
11,"COc1cc(-c2cnn(C(C)C(=O)NNc3ccccc3Cl)c2)c2c(c1)C(O)(C(F)(F)F)c1ccccc1-2 (stereo not shown) [Example 12, N'-(2-chlorophenyl)-2-(4-(9-hydroxy-2-methoxy-9-(trifluoromethyl)-9H-fluoren-4-yl)-1H-pyrazol-1-yl)propanehydrazide]",≥ 50%
12,"CC(C(=O)NNc1ccccc1F)n1cc(-c2cc(F)cc3c2-c2ccccc2C3(O)C(F)(F)F)cn1 (stereo not shown) [Example 13, 2-(4-(2-fluoro-9-hydroxy-9-(trifluoromethyl)-9H-fluoren-4-yl)-1H-pyrazol-1-yl)-N'-(2-fluorophenyl)propanehydrazide]",≥ 50%
13,"CC(C(=O)NNc1ccc(C(=O)O)cn1)n1cc(-c2cc(F)cc3c2-c2ccccc2C3(O)C(F)(F)F)cn1 (stereo not shown) [Example 14, 6-(2-(2-(4-(2-fluoro-9-hydroxy-9-(trifluoromethyl)-9H-fluoren-4-yl)-1H-pyrazol-1-yl)propanoyl)hydrazinyl)nicotinic acid]",≥ 50%
14,"COc1cc(-c2cnn(C(C)C(=O)NNc3ccc(C(=O)OC(C)(C)C)cn3)c2)c2c(c1)C(O)(C(F)(F)F)c1ccccc1-2 (stereo not shown) [Example 15, tert-butyl 6-(2-(2-(4-(9-hydroxy-2-methoxy-9-(trifluoromethyl)-9H-fluoren-4-yl)-1H-pyrazol-1-yl)propanoyl)hydrazinyl)nicotinate]",≥ 50%
15,"COc1cc(-c2cnn(C(C)C(=O)NNc3ccc(C(=O)O)cn3)c2)c2c(c1)C(O)(C(F)(F)F)c1ccccc1-2 (stereo not shown) [Example 16, 6-(2-(2-(4-(9-hydroxy-2-methoxy-9-(trifluoromethyl)-9H-fluoren-4-yl)-1H-pyrazol-1-yl)propanoyl)hydrazinyl)nicotinic acid]",≥ 50%
16,"COc1cc(-c2cnn(C(C)C(=O)NNc3ccccn3)c2)c2c(c1)C(O)(C(F)(F)F)c1ccccc1-2 (stereo not shown) [Example 17, 2-(4-(9-hydroxy-2-methoxy-9-(trifluoromethyl)-9H-fluoren-4-yl)-1H-pyrazol-1-yl)-N'-(pyridin-2-yl)propanehydrazide]",≥ 50%
17,"O=C(Cn1cc(-c2cc(F)cc3c2-c2ccccc2C3(O)C(F)(F)F)cn1)NNc1ccccn1 (stereo not shown) [Example 18, 2-(4-(2-fluoro-9-hydroxy-9-(trifluoromethyl)-9H-fluoren-4-yl)-1H-pyrazol-1-yl)-N'-(pyridin-2-yl)acetohydrazide]",≥ 80%
18,"CC(C)(C)OC(=O)c1ccc(NNC(=O)Cn2cc(-c3cc(F)cc4c3-c3ccccc3C4(O)C(F)(F)F)cn2)nc1 (stereo not shown) [Example 19, tert-butyl 6-(2-(2-(4-(2-fluoro-9-hydroxy-9-(trifluoromethyl)-9H-fluoren-4-yl)-1H-pyrazol-1-yl)acetyl)hydrazinyl)nicotinate]",≥ 50%
19,"O=C(Cn1cc(-c2cc(F)cc3c2-c2ccccc2C3(O)C(F)(F)F)cn1)NNc1ccc(C(=O)O)cn1 (stereo not shown) [Example 20, 6-(2-(2-(4-(2-fluoro-9-hydroxy-9-(trifluoromethyl)-9H-fluoren-4-yl)-1H-pyrazol-1-yl)acetyl)hydrazinyl)nicotinic acid]",≥ 50%
20,"O=C(Cn1cc(-c2cc(F)cc3c2-c2ccccc2C3(O)C(F)(F)F)cn1)NNc1ccc(F)cc1 (stereo not shown) [Example 21, 2-(4-(2-fluoro-9-hydroxy-9-(trifluoromethyl)-9H-fluoren-4-yl)-1H-pyrazol-1-yl)-N'-(4-fluorophenyl)acetohydrazide]",≥ 50%
21,"CC(C(=O)NNc1ccc(S(C)(=O)=O)cc1)n1cc(-c2cc(F)cc3c2-c2ccccc2C3(O)C(F)(F)F)cn1 (stereo not shown) [Example 22, 2-(4-(2-fluoro-9-hydroxy-9-(trifluoromethyl)-9H-fluoren-4-yl)-1H-pyrazol-1-yl)-N'-(4-(methylsulfonyl)phenyl)propanehydrazide]",≥ 50%
22,"COc1cc(-c2cnn(C(C)C(=O)NNc3ccc(S(C)(=O)=O)cc3)c2)c2c(c1)C(O)(C(F)(F)F)c1ccccc1-2 (stereo not shown) [Example 23, 2-(4-(9-hydroxy-2-methoxy-9-(trifluoromethyl)-9H-fluoren-4-yl)-1H-pyrazol-1-yl)-N'-(4-(methylsulfonyl)phenyl)propanehydrazide]",≥ 50%
23,"CC(C(=O)NNc1cnccn1)n1cc(-c2cc(F)cc3c2-c2ccccc2C3(O)C(F)(F)F)cn1 (stereo not shown) [Example 24, 2-(4-(2-fluoro-9-hydroxy-9-(trifluoromethyl)-9H-fluoren-4-yl)-1H-pyrazol-1-yl)-N'-(pyrazin-2-yl)propanehydrazide]",≥ 50%
24,"COc1cc(-c2cnn(C(C)C(=O)NNc3cnccn3)c2)c2c(c1)C(O)(C(F)(F)F)c1ccccc1-2 (stereo not shown) [Example 25, 2-(4-(9-hydroxy-2-methoxy-9-(trifluoromethyl)-9H-fluoren-4-yl)-1H-pyrazol-1-yl)-N'-(pyrazin-2-yl)propanehydrazide]",≥ 50%
25,"CC(C(=O)NNc1ccc(C(F)(F)F)cn1)n1cc(-c2cc(F)cc3c2-c2ccccc2C3(O)C(F)(F)F)cn1 (stereo not shown) [Example 26, 2-(4-(2-fluoro-9-hydroxy-9-(trifluoromethyl)-9H-fluoren-4-yl)-1H-pyrazol-1-yl)-N'-(5-(trifluoromethyl)pyridin-2-yl)propanehydrazide]",≥ 50%
26,"COc1cc(-c2cnn(C(C)C(=O)NNc3ccc(C(F)(F)F)cn3)c2)c2c(c1)C(O)(C(F)(F)F)c1ccccc1-2 (stereo not shown) [Example 27, 2-(4-(9-hydroxy-2-methoxy-9-(trifluoromethyl)-9H-fluoren-4-yl)-1H-pyrazol-1-yl)-N'-(5-(trifluoromethyl)pyridin-2-yl)propanehydrazide]",≥ 50%
27,"CC(C(=O)NNc1ncccn1)n1cc(-c2cc(F)cc3c2-c2ccccc2C3(O)C(F)(F)F)cn1 (stereo not shown) [Example 28, 2-(4-(2-fluoro-9-hydroxy-9-(trifluoromethyl)-9H-fluoren-4-yl)-1H-pyrazol-1-yl)-N'-(pyrimidin-2-yl)propanehydrazide]",≥ 50%
28,"COc1cc(-c2cnn(C(C)C(=O)NNc3ncccn3)c2)c2c(c1)C(O)(C(F)(F)F)c1ccccc1-2 (stereo not shown) [Example 29, 2-(4-(9-hydroxy-2-methoxy-9-(trifluoromethyl)-9H-fluoren-4-yl)-1H-pyrazol-1-yl)-N'-(pyrimidin-2-yl)propanehydrazide]",≥ 50%
